# Results published in patent publication US20070275936A1, “Formulations and Treatment Methods” (priority 1998, published 2007).
# Legend:
# HIV = HIV RNA level by PCR in HIV/HCV infected patient dosed I.V. with BrEA; assay type: in vivo; conditions: predosing 5.2
# Description: A patient infected with HIV and HCV was dosed I.V. with BrEA for 3 consecutive days using a formulation that contained 20 mg/mL BrEA in 45% w/v hydroxypropyl-β-cyclodextrin and saline. Four mL of the formulation (80 mg BrEA) was administered to the patient every 4 hours during the 3 day treatment period. The patient's predosing HCV level was 6.5 Log10 as measured by PCR and the HCV level was 6.2 Log10 on the first day of dosing, 5.5 Log10 on the 3rd day of dosing and 4.9 Log10 three days after the last dose was administered. HIV RNA levels as measured by PCR was 5.2 Log10 (predosing), 5.8 Log10 (first day), 5.9 Log10 (third day) and 5.4 Log10 (day 6). The NK cell counts (cells/mm^3) were 28, 41 and 38 at predosing, day 0 and day 3.
# P. berghei = assay: Survival of P. berghei infected mice given BrEA I.V. or S.C.; assay type: in vivo; conditions: cyclodextrin formulation, all control animals dead by day 10
# Description: In a similar protocol, mice are inoculated with a solution containing 1×10^7 erythrocytes/mL by I.V. injection. Two hours later give drug is delivered by I.V. injection. BrEA or another formula 1 compound is given (0.2 mL I.V. or S.C.) once a day for 4 days. Tail snips are used to obtain blood after the study. Mice infected with P. berghei were used to obtain infected cells. Parasites are harvested from cardiac mouse blood, and uninfected mice are infected using 0.2 ml of blood with 14% parasitaemia per mouse I.V. Two hours later, the first dose of BrEA (100 mg/kg I.V. or S.C.) is delivered to the infected animals. The BrEA formulation was a sterile solution containing 15 mg/mL of BrEA in 45% hydroxypropyl-β-cyclodextrin and 0.9% saline. At 1, 2, 3 and 4 days after the infection of the animals, BrEA (100 mg/kg I.V. or S.C.) is delivered to the infected animals.
# [1] = system: CD4+ memory T cell 1 (MT1) and memory T cell 2 (MT2) cells; assay: MT1:MT2 memory T cell ratio in patients after 5 day i.m. BrEA; assay type: in vivo, human
# Description: In a separate clinical trial using 100 mg of BrEA delivered to patients once per day for 5 consecutive days by intramuscular injection, several patients were evaluated for changes in the ratio of CD4^+ memory T cell 1 cells (intracellular IFNγ^+ CD45RA^− CD62L^− CD11a^bright) or MT1 cells to memory T cell 2 cells (intracellular IL-4^+ CD45RA^− CD62L^+ CD11a^dim) or MT2 cells. MT1 cells mediate or facilitate Th1 immune responses and MT2 cells mediate or facilitate Th2 immune responses. An increase in the MT1:MT2 ratio indicates an enhanced Th1 immune response or immune status. See, e.g., D. K. Mitra et al., International Immunology 1999 11:1801-1810. […] The maximum observed increase was about 700% in one patient at 10 days after the last dose of BrEA was administered. The increase usually persisted for more than 10 days after the last dose of BrEA was administered.
# P. berghei HP15 ANKA = assay: Four-day in vivo suppressive test in TO mice; set-up: species or system Plasmodium berghei; conditions: 100 mg/kg × 4 days i.p., day 5 blood films, 5 equals control
# Description: The 4-day suppressive test has been widely used and it can be performed within a 1 week period. The test consists of the inoculation of parasitised erythrocytes on the first day of the experiment (D0), followed by an injection of the test compound, which is also administered on the 2nd, 3rd and 4th days of the protocol. On the 5th day, blood films are taken and antimalarial activity is assessed either by calculating parasitemia, or by scoring parasite numbers on a predetermined scale (i.e., 1-5).
# The protocol is summarized as follows. Five female TO mice were used per test group. P. berghei HP15 ANKA parasites were collected by cardiac puncture using a heparinised syringe from a donor mouse having a 30+% parasitaemia. The blood was diluted with diluting agent (50% HIFCS+50% sterile PBS) to a final concentration of 1% parasitaemia or 1×10^7 infected erythrocytes per 0.2 mL of the infecting suspension. […] The steroid formulations were administered intraperitoneally 2 hours after parasite inoculation. The compounds were administered once a day starting on Do, and continued on the following three days. Blood films were made from tail blood on the day after the last dosing of compound and the blood was fixed with 100% methanol and stained with 10% Giemsa. Parasitaemias were scored on a scale of 0-5, where 5 is equal to the control.
# An inoculum of 1% parasitaemia […], 0.2 mL per mouse (female strain TO mice), was delivered by intravenous injection. Drug administration commenced 2 hours after inoculation on Day 1 and continued for 3 days.
SMILES,HIV RNA levels by PCR (HIV; day 6) [Log10],HIV RNA levels by PCR (HIV; first day) [Log10],HIV RNA levels by PCR (HIV; third day) [Log10],survival of infected mice (P. berghei; BrEA 100 mg/kg I.V. daily),survival of infected mice (P. berghei; BrEA 100 mg/kg S.C. daily),tested patients showing a transient increase in the MT1:MT2 ratio ([1]; 100 mg i.m. once per day for 5 consecutive days),"maximum observed increase in the MT1:MT2 ratio ([1]; one patient, 10 days after the last dose)",Parasitaemia Score (0-5) (P. berghei HP15 ANKA)
"C[C@]12CC[C@H](O)C[C@@H]1CC[C@@H]1[C@@H]2CC[C@]2(C)C(=O)[C@H](Br)C[C@@H]12 [BrEA, 16α-bromo-3β-hydroxy-5α-androstane-17-one]",5.4,5.8,5.9,No deaths occurred in the group receiving I.V. BrEA at day 30,dead by Day 11,7/7,about 700%,1
"C[C@]12CC[C@H](O)CC1=CC[C@@H]1[C@@H]2CC[C@]2(C)C(=O)CC[C@@H]12 [DHEA, dehydroepiandrosterone, reference compound]",–,–,–,–,–,–,–,1
